Results published in BindingDB's records for doi:10.1016/j.bmcl.2003.08.064 (Abbott Laboratories, 2003).

How the values were obtained:
[1] = molecular target: T1, Tyrosine-protein phosphatase non-receptor type 1 [1-298] (Homo sapiens, UniProt P18031); assay: PTP1B and TCPTP Inhibition Assay; settings: pH 7.5; 22 °C
T1 construct: 1-298
T1 sequence (P18031 whole entry): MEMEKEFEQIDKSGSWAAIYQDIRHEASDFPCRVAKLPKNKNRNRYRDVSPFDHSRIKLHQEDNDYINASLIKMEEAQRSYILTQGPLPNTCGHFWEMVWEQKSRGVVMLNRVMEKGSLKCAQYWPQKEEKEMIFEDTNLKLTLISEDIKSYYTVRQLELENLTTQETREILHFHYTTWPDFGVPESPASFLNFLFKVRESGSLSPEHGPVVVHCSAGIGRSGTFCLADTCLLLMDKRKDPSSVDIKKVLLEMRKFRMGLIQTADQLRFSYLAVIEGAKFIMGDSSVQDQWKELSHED
Procedure: (§1) For each concentration of test compound or DMSO control, the initial rates were used to fit the rectangular hyperbola of Michaelis-Menten by nonlinear regression analysis. The ratio of the apparent Km/Vmax vs inhibitor concentration was plotted, and the Ki was calculated by linear regression to be the negative X-intercept.

[2] = molecular target: T2, Tyrosine-protein phosphatase non-receptor type 2 (Homo sapiens, UniProt P17706); assay: PTP1B and TCPTP Inhibition Assay; settings: pH 7.5; 22 °C
T2 sequence (P17706 whole entry): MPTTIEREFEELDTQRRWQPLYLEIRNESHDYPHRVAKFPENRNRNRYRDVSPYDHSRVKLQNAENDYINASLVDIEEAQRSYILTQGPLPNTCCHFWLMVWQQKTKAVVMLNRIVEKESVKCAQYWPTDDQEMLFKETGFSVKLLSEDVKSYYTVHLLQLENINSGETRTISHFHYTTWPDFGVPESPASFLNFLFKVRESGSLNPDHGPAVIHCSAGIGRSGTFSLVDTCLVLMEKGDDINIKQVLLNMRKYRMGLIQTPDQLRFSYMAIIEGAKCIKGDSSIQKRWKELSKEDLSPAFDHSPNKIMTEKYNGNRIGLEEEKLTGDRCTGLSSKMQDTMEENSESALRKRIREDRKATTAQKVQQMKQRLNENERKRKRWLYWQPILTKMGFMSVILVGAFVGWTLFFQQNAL
Procedure: as §1

Row | Compound | Ki [1] [µM] | Ki [2] [µM]
1 | COC(=O)c1c(O)cccc1OCCCCNC(=O)[C@H](Cc1ccc(C=CC(=O)O)cc1)NC(=O)OC(C)(C)C [(2Z)-3-{4-[(2S)-2-{[(tert-butoxy)carbonyl]amino}-2-({4-[3-hydroxy-2-(methoxycarbonyl)phenoxy]butyl}carbamoyl)ethyl]phenyl}prop-2-enoic acid] | > 200 | –
2 | COC(=O)c1c(O)cccc1OCCCCNC(=O)[C@H](Cc1ccc(OCC(=O)O)cc1)NC(=O)OC(C)(C)C | – | > 200
3 | COC(=O)c1c(O)cccc1OCCCCNC(=O)[C@H](Cc1ccc(OCC(=O)O)c(O)c1)NC(C)=O (racemic) [2-{4-[2-acetamido-2-({4-[3-hydroxy-2-(methoxycarbonyl)phenoxy]butyl}carbamoyl)ethyl]-2-hydroxyphenoxy}acetic acid] | – | 182
4 | CCc1cc(CC(NC(C)=O)C(=O)NCCCCOc2cccc(O)c2C(=O)OC)ccc1N(C(=O)C(=O)O)c1ccccc1C(=O)O (centres undefined) | – | 65
